Assay results: patent US20260274833A1 (NiKang Therapeutics, Inc., priority 2022, published 2026)

Target: T1, CDK2 (Homo sapiens, UniProt P24941)
T1 construct: endogenous in cells; host or cells: OVCAR3 cells
Test: Phospho-RB measurement in OVCAR3 cells (HTRF phospho-RB cellular kit)
Assay type: cell-based
Details: inhibition of RB phosphorylation at S807/811 (HTRF, TR-FRET ratio 665/620), 24 h compound treatment, 0.3 to 10,000 nM
How it was run: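 IC50 came from a four-parameter logistic fit of the DMSO-normalized TR-FRET ratio (665/620 nm). That ratio reflects RB phosphorylation at S807/811, read with an HTRF antibody pair 4 h after adding lysate at room temperature.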

| IC50 | Structure (SMILES) |
| --- | --- |
| 2.12 µM | CN(C)Cc1ccc2c(c1)CN(S(=O)(=O)Nc1cccc(-c3nc(C(C)(C)C)sc3-c3ccnc(NC4CCN(S(C)(=O)=O)CC4)n3)c1F)C2 [Example 171, N-(3-(2-(tert-butyl)-5-(2-((1-(methylsulfonyl)-piperidin-4-yl)amino)-pyrimidin-4-yl)thiazol-4-yl)-2-fluoro-phenyl)-5-((dimethylamino)methyl)-isoindoline-2-sulfonamide] |
| 3.17 µM | CNCc1cccc2c1CN(S(=O)(=O)Nc1cccc(-c3nc(C(C)(C)C)sc3-c3ccnc(NC4CCN(S(C)(=O)=O)CC4)n3)c1F)C2 [Example 172, N-(3-(2-(tert-butyl)-5-(2-((1-(methylsulfonyl)-piperidin-4-yl)amino)-pyrimidin-4-yl)thiazol-4-yl)-2-fluoro-phenyl)-4-((methylamino)methyl)-isoindoline-2-sulfonamide] |
| 0.385 µM | CN(C1CNC1)S(=O)(=O)N1CCC(Nc2nccc(-c3sc(C(C)(C)C)nc3-c3cccc(NS(=O)(=O)N4Cc5ccccc5C4)c3F)n2)CC1 [Example 173, N-(3-(5-(2-((1-(N-(azetidin-3-yl)-N-methylsulfamoyl)piperidin-4-yl)amino)-pyrimidin-4-yl)-2-(tert-butyl)thiazol-4-yl)-2-fluorophenyl) isoindoline-2-sulfonamide] |
| 0.853 µM | CC(C)(C)c1nc(-c2cccc(NS(=O)(=O)N3CCC4(CCC4)C3)c2F)c(-c2ccnc(NC3CCN(S(C)(=O)=O)CC3)n2)s1 [Example 174, N-(3-(2-(tert-butyl)-5-(2-((1-(methylsulfonyl)-piperidin-4-yl)amino)-pyrimidin-4-yl)thiazol-4-yl)-2-fluoro-phenyl)-6-azaspiro [3.4]octane-6-sulfonamide] |
| 0.943 µM | CC(C)(C)c1nc(-c2cccc(NS(=O)(=O)N3CCC4(CC4)C3)c2F)c(-c2ccnc(NC3CCN(S(=O)(=O)N4CCNCC4)CC3)n2)s1 [Example 175, N-(3-(2-(tert-butyl)-5-(2-((1-(piperazin-1-ylsulfonyl)piperidin-4-yl)amino)-pyrimidin-4-yl)thiazol-4-yl)-2-fluoro-phenyl)-5-azaspiro [2.4]heptane-5-sulfonamide] |
| 1.92 µM | CC(C)(C)c1nc(-c2cccc(NS(=O)(=O)N3CCC4(CCCC4)C3)c2F)c(-c2ccnc(NC3CCN(S(=O)(=O)N4CCNCC4)CC3)n2)s1 [Example 176, N-(3-(2-(tert-butyl)-5-(2-((1-(piperazin-1-ylsulfonyl)piperidin-4-yl)amino)-pyrimidin-4-yl)thiazol-4-yl)-2-fluoro-phenyl)-2-azaspiro[4.4] nonane-2-sulfonamide] |
| 1.02 µM | CC(C)(C)c1nc(-c2cccc(NS(=O)(=O)N3CCC4(CCC4)C3)c2F)c(-c2ccnc(NC3CCN(S(=O)(=O)N4CCNCC4)CC3)n2)s1 [Example 177, N-(3-(2-(tert-butyl)-S-(2-((1-(piperazin-1-ylsulfonyl)piperidin-4-yl)amino)-pyrimidin-4-yl)thiazol-4-yl)-2-fluoro-phenyl)-6-azaspiro[3.4] octane-6-sulfonamide] |
| 0.203 µM | CC(C)c1nc(-c2cccc(NS(=O)(=O)N3CCc4ccccc43)c2F)c(-c2ccnc(NC3CCN(S(=O)(=O)N4CCNCC4)CC3)n2)s1 [Example 178, N-(2-fluoro-3-(2-isopropyl-5-(2-((1-(piperazin-1-ylsulfonyl)piperidin-4-yl)amino)pyrimidin-4-yl)thiazol-4-yl)phenyl)indoline-1-sulfonamide] |
| 0.241 µM | CN1CC(N(C)S(=O)(=O)N2CCC(Nc3nccc(-c4sc(C(C)(C)C)nc4-c4cccc(NS(=O)(=O)N5Cc6ccccc6C5)c4F)n3)CC2)C1 [Example 179, N-(3-(2-(tert-butyl)-5-(2-((1-(N-methyl-N-(1-methylazetidin-3-yl)sulfamoyl)-piperidin-4-yl)amino)pyrimidin-4-yl)-thiazol-4-yl)-2-fluorophenyl)-isoindoline-2-sulfonamide] |
| 2.82 µM | CC(C)(C)c1nc(-c2cccc(NS(=O)(=O)N3CCC4(CC4)C3)c2F)c(-c2ccnc(NC3CC4(C3)CS(=O)(=O)C4)n2)s1 [Example 180, N-(3-(2-(tert-butyl)-5-(2-((2,2-dioxido-2-thiaspiro[3.3]heptan-6-yl)amino)-pyrimidin-4-yl)thiazol-4-yl)-2-fluoro-phenyl)-5-azaspiro[2.4] heptane-5-sulfonamide] |
| 1.89 µM | CNCCOc1cccc2c1CCN2S(=O)(=O)Nc1cccc(-c2nc(C(C)(C)C)sc2-c2ccnc(NC3CCN(S(C)(=O)=O)CC3)n2)c1F [Example 181, N-(3-(2-(tert-butyl)-5-(2-((1-(methylsulfonyl)-piperidin-4-yl)amino)-pyrimidin-4-yl)thiazol-4-yl)-2-fluoro-phenyl)-4-(2-(methylamino)-ethoxy)-indoline-1-sulfonamide] |
| 1.19 µM | CC(C)(C)c1nc(-c2cccc(NS(=O)(=O)N3CCC4(CCC4)C3)c2F)c(-c2ccnc(NC3CC4(C3)CS(=O)(=O)C4)n2)s1 [Example 182, N-(3-(2-(tert-butyl)-5-(2-((2,2-dioxido-2-thiaspiro[3.3]heptan-6-yl)amino)-pyrimidin-4-yl)thiazol-4-yl)-2-fluoro-phenyl)-6-azaspiro[3.4] octane-6-sulfonamide] |
| 0.133 µM | CNS(=O)(=O)N1CCC(Nc2nccc(-c3sc(C(C)(C)C)nc3-c3cccc(NS(=O)(=O)N4CCc5ccc(C#N)cc54)c3F)n2)CC1 [Example 183, N-(3-(2-(tert-butyl)-5-(2-((1-(N-methyl-sulfamoyl)piperidin-4-yl)amino)-pyrimidin-4-yl)thiazol-4-yl)-2~fluoro-phenyl)-6-cyano-indoline-1-sulfonamide] |
| 1.54 µM | CN(C)S(=O)(=O)Nc1cccc(-c2nc(C(C)(C)C)sc2-c2ccnc(NC3CC4(C3)CS(=O)(=O)C4)n2)c1F [Example 184, N-(3-(2-(tert-butyl)-5-(2-((2,2-dioxido-2-thiaspiro[3.3]heptan-6-yl)amino)-pyrimidin-4-yl)thiazol-4-yl)-2-fluoro-phenyl)dimethyl-aminesulfonamide] |
| 0.055 µM | CC(C)(C)c1nc(-c2cccc(NS(=O)(=O)N3Cc4cccc(C#N)c4C3)c2F)c(-c2ccnc(NC3CCN(S(C)(=O)=O)CC3)n2)s1 [Example 185, N-(3-(2-(tert-butyl)-5-(2-((1-(methylsulfonyl)-piperidin-4-yl)amino)-pyrimidin-4-yl)thiazol-4-yl)-2-fluoro-phenyl)-4-cyanoisoindoline-2-sulfonamide] |
| 1.18 µM | CC(C)(C)c1nc(-c2cccc(NS(=O)(=O)N3CCC(F)(F)C3)c2F)c(-c2ccnc(NC3CC4(C3)CS(=O)(=O)C4)n2)s1 [Example 186, N-(3-(2-(tert-butyl)-5-(2-((2,2-dioxido-2-thiaspiro[3.3]heptan-6-yl)amino)-pyrimidin-4-yl)thiazol-4-yl)-2-fluoro-phenyl)-3,3-difluoropyrrolidine-1-sulfonamide] |
| 0.194 µM | CC(C)(C)c1nc(-c2cccc(NS(=O)(=O)N3Cc4ccncc4C3)c2F)c(-c2ccnc(NC3CC4(C3)CS(=O)(=O)C4)n2)s1 [Example 187, N-(3-(2-(tert-butyl)-5-(2-((2,2-dioxido-2-thiaspiro[3.3]heptan-6-yl)amino)-pyrimidin-4-yl)thiazol-4-yl)-2-fluoro-phenyl)-1,3-dihydro-2H-pyrrolo[3,4-c]-pyridine-2-sulfonamide] |
| 1.66 µM | CN(C)CCOc1ccc2c(c1)N(S(=O)(=O)Nc1cccc(-c3nc(C(C)(C)C)sc3-c3ccnc(NC4CCN(S(C)(=O)=O)CC4)n3)c1F)CC2 [Example 188, N-(3-(2-(tert-butyl)-5-(2-((1-(methylsulfonyl)-piperidin-4-yl)amino)-pyrimidin-4-yl)thiazol-4-yl)-2-fluoro-phenyl)-6-(2-(dimethylamino)-ethoxy)-indoline-1-sulfonamide] |
| 1.55 µM | CN(C)Cc1ccc2c(c1)CCN2S(=O)(=O)Nc1cccc(-c2nc(C(C)(C)C)sc2-c2ccnc(NC3CCN(S(C)(=O)=O)CC3)n2)c1F [Example 189, N-(3-(2-(tert-butyl)-5-(2-((1-(methylsulfonyl)-piperidin-4-yl)amino)-pyrimidin-4-yl)thiazol-4-yl)-2-fluoro-phenyl)-5-((dimethylamino)-methyl)-indoline-1-sulfonamide] |
| 0.259 µM | CC(C)(C)c1nc(-c2cccc(NS(=O)(=O)N3CCc4ncccc43)c2F)c(-c2ccnc(NC3CC4(C3)CS(=O)(=O)C4)n2)s1 [Example 190, N-(3-(2-(tert-butyl)-5-(2-((2,2-dioxido-2-thiaspiro[3.3]heptan-6-yl)amino)-pyrimidin-4-yl)thiazol-4-yl)-2-fluoro-phenyl)-2,3-dihydro-1H-pyrrolo[3,2-b]-pyridine-1-sulfonamide] |
| 8.62 µM | CCN(CC)S(=O)(=O)Nc1cccc(-c2nc(C(C)(C)C)sc2-c2ccnc(NC3CC4(C3)CS(=O)(=O)C4)n2)c1F [Example 191, N-(3-(2-(tert-butyl)-5-(2-((2,2-dioxido-2-thiaspiro[3.3]heptan-6-yl)amino)-pyrimidin-4-yl)thiazol-4-yl)-2-fluoro-phenyl)-diethylamine-sulfonamide] |
| 0.0882 µM | CC(C)(C)c1nc(-c2cccc(NS(=O)(=O)N3CCc4ccccc43)c2F)c(-c2ccnc(NC3CC4(C3)CS(=O)(=O)C4)n2)s1 [Example 192, N-(3-(2-(tert-butyl)-5-(2-((2,2-dioxido-2-thiaspiro[3.3]heptan-6-yl)amino)-pyrimidin-4-yl)thiazol-4-yl)-2-fluoro-phenyl)indoline-1-sulfonamide] |
| 0.125 µM | CC(C)(C)c1nc(-c2cccc(NS(=O)(=O)N3CCc4c(C#N)cccc43)c2F)c(-c2ccnc(NC3CC4(C3)CS(=O)(=O)C4)n2)s1 [Example 193, N-(3-(2-(tert-butyl)-5-(2-((2,2-dioxido-2-thiaspiro[3.3]heptan-6-yl)amino)-pyrimidin-4-yl)thiazol-4-yl)-2-fluoro-phenyl)-4-cyanoindoline-1-sulfonamide] |
